Assay results from patent publication US7214663B2, “Tripeptide prodrug compounds” (Medarex, Inc., priority 2001, dated 2007).

What was measured:
in vivo = conditions: female, ICR, mouse, iv, 100 umol/kg
Procedure: Plasma was obtained from three individual animals in each group at 5 minutes, 1, 2, 4, or 6 hr.

Ramos cells (CD10pos) = format: cell-based, human; conditions: 24 hours, 3H-thymidine
Procedure: (§1) In addition to LNCaP, a number of B-cell lines, such as Ramos and Namalwa cells express CD10 (CD10^pos cells).
(§2) Suspension cells, BALL-1, Ramos and Namalwa cells were cultured in RPMI media containing 10% heat inactivated fetal calf serum (FCS). On the day of the study, the cells were collected, washed and resuspended at a concentration of 0.5×10^6 cells/ml in RPMI containing 10% FCS. 100 μl of cell suspension was added to 96 well plates. […] Finally 10 μl of a 100 μCi/ml ^3H-thymidine was added per well and the plates were incubated for 24 hours. The plates were harvested using a 96 well Harvester (Packard Instruments) and counted on a Packard Top Count counter. Four parameter logistic curves were fitted to the ^3H-thymidine incorporation as a function of drug molarity using Prism software to determine IC50 values.

BALL-1 cells (CD10neg) = format: cell-based, human
Procedure: as §1, §2

[1] = tested on: LNCaP (prostate carcinoma) cells; conditions: 48 hours, 3H-thymidine incorporation
Procedure: (§3) Adherent cells, LNCaP (prostate carcinoma), HT-29 (colon carcinoma) and PC-3 (prostate carcinoma), were cultured in DMEM media containing 10% heat inactivated fetal calf serum (FCS). On the day of the study the cells were detached from the plate with a trypsin solution. The collected cells were washed and resuspended at a concentration of 0.25×10^6 cells/ml in DMEM containing 10% FCS. 100 μl of cell suspension were added to 96 well plates and the plates were incubated for 3 hours to allow the cells to adhere. […] The plates were then incubated for 24 hours, pulsed with 10 μl of a 100 μCi/ml ^3H-thymidine and incubated for an additional 24 hours (total incubation time 48 hours). The plates were harvested using a 96 well Harvester (Packard Instruments) and counted on a Packard Top Count Counter. Four parameter logistic curves were fitted to the ^3H-thymidine incorporation as a function of drug molarity using Prism software to determine IC50 values.
(§4) Prostate carcinoma cells, LNCaP and PC-3 cells or colon carcinoma cells HT-29, were incubated with increasing concentration of the indicated compounds for 48 hours and cellular proliferation was measured using the ^3H-thymidine assay.

[2] = tested on: HT-29 (colon carcinoma) cells; conditions: HT29, 48 hours, 3H-thymidine incorporation
Procedure: as §3, §4

[3] = tested on: PC-3 (prostate carcinoma) cells; conditions: PC-3, 48 hours, 3H-thymidine incorporation
Procedure: as §3, §4

[4] = Metabolism and clearance of Suc-Leu-Ala-Leu-Dox in mice (plasma, urine); format: in vivo, mouse; conditions: after single intravenous 117 mg/kg Suc-Leu-Ala-Leu-Dox
Procedure: Plasma samples of 100 μl were transferred to microcentrifuge tubes (1.5 mL) and an internal standard of daunorubicin (20 μL at 0.5 mg/ml) was added together with acetonitrile (400 μl). The tubes were capped and briefly vortexed followed by centrifugation at 14,000 rpm. 420 μl from each tube was removed and dried in vacuo. Each sample was reconstituted in 65 μl 20 mM aqueous ammonium formate (AF) pH 4.5 buffer containing acetonitrile (20%) prior to analysis by reverse phase liquid chromatography in combination with tandem mass spectrometry (LC MS/MS).
Urine was collected at 2 and 24 hours post administration from pairs of mice in metabolic cages. Urine samples were diluted with AF buffer containing acetonitrile (20%) to give a target analyte concentration within the practical range of the LC MS/MS assay. 30 μl of each diluted sample was placed in a micro centrifuge tube (1.5 ml) and an internal standard of daunorubicin (20 μL at 0.5 mg/ml) was added together with 50 μl of AF buffer containing acetonitrile (20%). Each sample was then analyzed by LC MS/MS.
An Agilent HP1100 HPLC with DAD detector and Chemstation software was coupled to a PE Sciex API 365 mass spectrometer with an electrospray ion source. HPLC was performed on a TSK-Gel Super ODS, […], 4.6×50 mm (TosoHaas) reversed phase column equipped with a […] C18 guard disc (Higgins Analytical) and stainless steel frit (Upchurch Scientific). Chromatography was performed at room temperature. The flow rate was 0.5 ml/min. Injection volume was 50 μl. Gradient elution was performed using a mobile phase of AF buffer with increasing amounts of acetonitrile. The API 365 was operated at 365° C. in a multiple reaction monitoring mode, set to monitor specific analyte parent-daughter ion pairs. Integration of chromatograms was performed by MacQuan software (PE Sciex) and quantitation of each analyte obtained by comparison to previously obtained calibration curves. Daunorubicin was used as an internal standard in all cases.

[5] = tested on: purified Porcine Kidney CD10; assay: Hydrolysis by purified CD10; format: biochemical
Procedure: Reaction products were analyzed by HPLC with fluorescence detection. Rates were essentially linear over the incubation period. The observed product was Leu-doxorubicin.

Structure (SMILES): COc1cccc2c1C(=O)c1c(O)c3c(c(O)c1C2=O)C[C@@](O)(C(=O)CO)C[C@@H]3O[C@H]1C[C@H](NC(=O)[C@H](CC(C)C)NC(=O)[C@H](C)NC(=O)[C@H](CC(C)C)NC(=O)CCC(=O)O)[C@H](O)[C@H](C)O1 [Suc-Leu-Ala-Leu-Dox]
- AUC (in vivo): 634 µM·h
- IC50 (Ramos cells (CD10pos)): 2.63 µM
- fold difference between CD10pos and CD10neg cells (BALL-1 cells (CD10neg)): 30-35 fold
- IC50 (BALL-1 cells (CD10neg); Ball-1 (CD10neg), 24 hours, 3H-thymidine): 78.7 µM
- Ratio Ball-1:Namalwa (BALL-1 cells (CD10neg); ratio of IC50): 35
- Ratio Ball-1:Ramos (BALL-1 cells (CD10neg); ratio of IC50): 30
- IC50 [1]: ~1 µM
- IC50 [2]: 36 µM
- IC50 [3]: 50 µM
- Plasma 1 hr, percent of administered dose [4]: 1.49%
- Urine 2 hr, percent of administered dose [4]: 9.31%
- Urine 24 hr, percent of administered dose [4]: 2.11%
- dose excreted at 2 h ([4]; female, mouse, in vivo, read-out: Urine 2 hr, percent of administered dose): 9.31%
- % hydrolysis/10 hr ([5]; 12.5 μg/mL, 37° C., pH 7.4, up to 10 hr): 8.3%
- Fraction hydrolyzed relative to standard ([5]; standard Suc-βAla-Leu-Ala-Leu-Dox): 0.75
